Target: T1, SIRT1 (Homo sapiens, UniProt Q96EB6)
T1 sequence (Q96EB6 1-747): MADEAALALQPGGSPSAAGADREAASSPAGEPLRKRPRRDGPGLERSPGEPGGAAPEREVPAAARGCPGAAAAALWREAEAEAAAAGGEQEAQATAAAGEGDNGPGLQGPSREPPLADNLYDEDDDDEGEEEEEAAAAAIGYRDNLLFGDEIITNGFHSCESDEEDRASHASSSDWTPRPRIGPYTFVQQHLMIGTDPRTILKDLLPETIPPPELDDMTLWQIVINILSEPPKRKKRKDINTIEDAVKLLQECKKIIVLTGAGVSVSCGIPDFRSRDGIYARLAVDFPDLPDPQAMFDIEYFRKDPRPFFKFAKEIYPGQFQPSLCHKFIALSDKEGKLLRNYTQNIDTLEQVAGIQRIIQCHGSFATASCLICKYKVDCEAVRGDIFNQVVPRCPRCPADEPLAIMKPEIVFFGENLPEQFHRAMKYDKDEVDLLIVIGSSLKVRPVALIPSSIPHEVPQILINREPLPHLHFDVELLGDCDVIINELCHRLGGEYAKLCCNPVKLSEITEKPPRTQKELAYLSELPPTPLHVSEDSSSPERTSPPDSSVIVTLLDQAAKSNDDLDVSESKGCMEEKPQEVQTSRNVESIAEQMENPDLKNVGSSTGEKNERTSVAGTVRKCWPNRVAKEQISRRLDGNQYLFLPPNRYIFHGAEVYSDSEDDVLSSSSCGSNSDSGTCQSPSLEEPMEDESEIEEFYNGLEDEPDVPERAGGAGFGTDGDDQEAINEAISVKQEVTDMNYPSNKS
Assay: Trp mass spectrometry assay of SIRT1 activation (deacetylation of Ac-R-H-K-K(Ac)-W-NH2 peptide, OAADPR formation)
Format: biochemical
Conditions: Trp peptide 0.5 μM, 120 μM βNAD+, 10 nM SIRT1, 25 min, 25° C.; for Emax: 25 min, read-out: TRP MAX RESP (percent maximum fold activation relative to control = 100%)
In short: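 10 nM His-tagged SIRT1 (E. coli expressed) with 0.5 μM Ac-RHKK(Ac)W-NH2 and 120 μM βNAD+, 25 min at 25° C, HEPES pH 7.5, […]; formic acid stop. OAADPR or deacetylated peptide measured by mass spectrometry; EC1.5 = concentration giving 150% activity versus DMSO control; maximum activation also reported.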

Row | Structure (SMILES) | Emax [%] | TRP Activity (EC1.5, concentration of compound required to increase SIRT1 activity by 50% over control)
1 | O=C(Nc1nccc(OC[C@H](O)CO)n1)N1c2nc(-c3cccc(C(F)(F)F)c3)c(Cl)cc2N2CCC[C@H]1C2 [Example 78, (9S)-3-chloro-N-(4-((R)-2,3-dihydroxypropoxy)pyrimidin-2-yl)-2-(3-(trifluoromethyl)phenyl)-8,9-dihydro-6H-5,9-methanopyrido[2,3-b][1,4]diazocine-10(7H)-carboxamide] | ≥ 150 | A (EC1.5<1 μM)
2 | O=C(Nc1ccc(OC[C@H](O)CO)nc1)N1c2nc(-c3cccc(C(F)(F)F)c3)c(Cl)cc2N2CCC[C@H]1C2 [Example 79, (9S)-3-chloro-N-(6-((R)-2,3-dihydroxypropoxy)pyridin-3-yl)-2-(3-(trifluoromethyl)phenyl)-8,9-dihydro-6H-5,9-methanopyrido[2,3-b][1,4]diazocine-10(7H)-carboxamide] | ≥ 150 | A (EC1.5<1 μM)
3 | O=C(Nc1cncc(OC[C@@H](O)CO)c1)N1c2nc(-c3cccc(C(F)(F)F)c3)c(Cl)cc2N2CCC[C@H]1C2 [Example 80, (9S)-3-chloro-N-(5-((S)-2,3-dihydroxypropoxy)pyridin-3-yl)-2-(3-(trifluoromethyl)phenyl)-8,9-dihydro-6H-5,9-methanopyrido[2,3-b][1,4]diazocine-10(7H)-carboxamide] | ≥ 150 | A (EC1.5<1 μM)
4 | O=C(Nc1ccnc(OC[C@@H](O)CO)n1)N1c2nc(-c3cccc(C(F)(F)F)c3)c(Cl)cc2N2CCC[C@H]1C2 [Example 81, (9S)-3-chloro-N-(2-((S)-2,3-dihydroxypropoxy)pyrimidin-4-yl)-2-(3-(trifluoromethyl)phenyl)-8,9-dihydro-6H-5,9-methanopyrido[2,3-b][1,4]diazocine-10(7H)-carboxamide] | ≥ 150 | A (EC1.5<1 μM)
5 | O=C(Nc1cc(OC[C@H](O)CO)ccn1)N1c2nc(-c3cccc(C(F)(F)F)c3)c(Cl)cc2N2CCC[C@H]1C2 [Example 82, (9S)-3-chloro-N-(4-((R)-2,3-dihydroxypropoxy)pyridin-2-yl)-2-(3-(trifluoromethyl)phenyl)-8,9-dihydro-6H-5,9-methanopyrido[2,3-b][1,4]diazocine-10(7H)-carboxamide] | ≥ 150 | A (EC1.5<1 μM)
6 | O=C(Nc1ccnc(OC[C@@H](O)CO)c1)N1c2nc(-c3cccc(C(F)(F)F)c3)c(Cl)cc2N2CCC[C@H]1C2 [Example 83, (9S)-3-chloro-N-(2-((S)-2,3-dihydroxypropoxy)pyridin-4-yl)-2-(3-(trifluoromethyl)phenyl)-8,9-dihydro-6H-5,9-methanopyrido[2,3-b][1,4]diazocine-10(7H)-carboxamide] | ≥ 150 | A (EC1.5<1 μM)
7 | O=C(Nc1ccc(OC[C@@H](O)CO)nc1)N1c2nc(-c3cccc(C(F)(F)F)c3)c(Cl)cc2N2CCC[C@H]1C2 [Example 84, (9S)-3-chloro-N-(6-((S)-2,3-dihydroxypropoxy)pyridin-3-yl)-2-(3-(trifluoromethyl)phenyl)-8,9-dihydro-6H-5,9-methanopyrido[2,3-b][1,4]diazocine-10(7H)-carboxamide] | ≥ 150 | A (EC1.5<1 μM)
8 | O=C(Nc1ccnc(OC[C@H](O)CO)c1)N1c2nc(-c3cccc(C(F)(F)F)c3)c(Cl)cc2N2CCC[C@H]1C2 [Example 85, (9S)-3-chloro-N-(2-((R)-2,3-dihydroxypropoxy)pyridin-4-yl)-2-(3-(trifluoromethyl)phenyl)-8,9-dihydro-6H-5,9-methanopyrido[2,3-b][1,4]diazocine-10(7H)-carboxamide] | ≥ 150 | A (EC1.5<1 μM)
9 | O=C(Nc1cc(OC[C@@H](O)CO)ncn1)N1c2nc(-c3cccc(C(F)(F)F)c3)c(Cl)cc2N2CCC[C@H]1C2 [Example 86] | ≥ 150 | A (EC1.5<1 μM)
10 | O=C(Nc1ccc(OC[C@H](O)CO)cn1)N1c2nc(-c3cccc(C(F)(F)F)c3)c(Cl)cc2N2CCC[C@H]1C2 [Example 87, (9S)-3-chloro-N-(5-((R)-2,3-dihydroxypropoxy)pyridin-2-yl)-2-(3-(trifluoromethyl)phenyl)-8,9-dihydro-6H-5,9-methanopyrido[2,3-b][1,4]diazocine-10(7H)-carboxamide] | ≥ 150 | A (EC1.5<1 μM)
11 | O=C(Nc1ccnc(OC[C@H](O)CO)n1)N1c2nc(-c3cccc(C(F)(F)F)c3)c(Cl)cc2N2CCC[C@H]1C2 [Example 88, (9S)-3-chloro-N-(2-((R)-2,3-dihydroxypropoxy)pyrimidin-4-yl)-2-(3-(trifluoromethyl)phenyl)-8,9-dihydro-6H-5,9-methanopyrido[2,3-b][1,4]diazocine-10(7H)-carboxamide] | ≥ 150 | A (EC1.5<1 μM)
12 | O=C(Nc1ncc(OC[C@H](O)CO)cn1)N1c2nc(-c3cccc(C(F)(F)F)c3)c(Cl)cc2N2CCC[C@H]1C2 [Example 89, (9S)-3-chloro-N-(5-((R)-2,3-dihydroxypropoxy)pyrimidin-2-yl)-2-(3-(trifluoromethyl)phenyl)-8,9-dihydro-6H-5,9-methanopyrido[2,3-b][1,4]diazocine-10(7H)-carboxamide] | ≥ 150 | A (EC1.5<1 μM)
13 | Cc1cc(-c2cc(C)c3c(n2)N(C(=O)Nc2cccnc2)[C@H]2CCCN3C2)ccn1 [Example 90, (9S)-4-methyl-2-(2-methylpyridin-4-yl)-N-(pyridin-3-yl)-8,9-dihydro-6H-5,9-methanopyrido[2,3-b][1,4]diazocine-10(7H)-carboxamide] | ≥ 150 | A (EC1.5<1 μM)
14 | Cc1cc2c(nc1-c1cccc(C(F)(F)F)c1)N(C(=O)Nc1cc(OC[C@H](O)CO)ccn1)[C@H]1CCCN2C1 [Example 91, (9S)-N-(4-((R)-2,3-dihydroxypropoxy)pyridin-2-yl)-3-methyl-2-(3-(trifluoromethyl)phenyl)-8,9-dihydro-6H-5,9-methanopyrido[2,3-b][1,4]diazocine-10(7H)-carboxamide] | ≥ 150 | A (EC1.5<1 μM)
15 | O=C(Nc1ncc(OC[C@@H](O)CO)cn1)N1c2nc(-c3cccc(C(F)(F)F)c3)c(Cl)cc2N2CCC[C@H]1C2 [Example 92, (9S)-3-chloro-N-(5-((S)-2,3-dihydroxypropoxy)pyrimidin-2-yl)-2-(3-(trifluoromethyl)phenyl)-8,9-dihydro-6H-5,9-methanopyrido[2,3-b][1,4]diazocine-10(7H)-carboxamide] | ≥ 150 | A (EC1.5<1 μM)

— patent US20190048016A1, “SUBSTITUTED BRIDGED UREA ANALOGS AS SIRTUIN MODULATORS” (GlaxoSmithKline Intellectual Property(No.2)Limited, priority 2014, published 2019)
